One test relates to recombinant human PKC-δ. Put plainly: PKC-δ kinase assay in vitro (p81 filter / autoradiography). The test is classed as biochemical. On the procedure:
Measurement of PKC-δ activity: In vitro kinase activity assays were performed with active recombinant human PKC-δ kinase (as a GST fusion protein). PKC-δ assay in vitro was performed using 5 ng purified enzyme in a 50 μl assay containing 50 mM HEPES pH 7.4, 10 mM MgCl2, 0.2 mM DTT, sonicated lipid activators (0.5 μg phosphatidylserine and 0.05 μg diacylglycerol) or lipid activators plus PMA (as indicated in appropriate experiments) and PKC-δ substrates. The reaction was started by the addition of 50 μM ATP labeled with 5 μCi [γ-^32P]-ATP. Incubation was performed for 15 min at 30° C., unless otherwise stated. The reaction was terminated on ice, either by the addition of Laemmli buffer followed by SDS-PAGE, transferred to PVDF membrane, and autoradiography, or by the addition of 1 volume 10% phosphoric acid for p81 transfer as described below. For autophosphorylation of PKC-δ 20 μM ATP was used to start the 40-min reaction.
When hBVR or its mutants were tested for their effect on PKC-δ activity, they were pre-incubated for 5 min at room temperature with the PKC prior to substrate addition. The hBVR-derived peptides were used at concentrations indicated in appropriate figures.
When hBVR or its mutants were assayed as the sole substrates for PKC, the incubation conditions were as described above and the incubation was for 40 min at 30° C. unless specified otherwise. The reaction was terminated by the addition of Laemmli buffer, and the reaction products were detected by SDS-PAGE, transfer to PVDF membrane, and autoradiography.
Measurement of PKC-δ activity: PKC-δ assay in vitro was performed using 0.1 ng/μl purified recombinant human PKC-δ kinase with reaction conditions specified by the manufacturer. Effector molecules such as hBVR or peptides were added 5 min prior to substrate. The reaction was started by the addition of [γ-^32P]-ATP (Lerner-Marmarosh et al., “Human Biliverdin Reductase: A Member of the Insulin Receptor Substrate Family with Serine/Threonine/Tyrosine Kinase Activity,” Proc. Natl. Acad. Sci. U.S.A. 102(20):7109-7114 (2005), which is hereby incorporated by reference in its entirety). Reaction products were detected either by gel electrophoresis and autoradiography or by the p81 filter assay. PKC-δ activity on agarose beads was also measured. Cell lysates were immunoprecipitated with anti-PKC-δ antibody followed by protein A/G agarose. The immunoprecipitates were used in kinase reactions containing 50 μM PKC-δ specific peptide substrate as above; incorporation of ^32P was measured by p81 method.

A further test concerns the target T1, PKC-ζ (Homo sapiens, UniProt Q05513).
T1 construct: purchased Millipore
T1 sequence (Q05513 1-592): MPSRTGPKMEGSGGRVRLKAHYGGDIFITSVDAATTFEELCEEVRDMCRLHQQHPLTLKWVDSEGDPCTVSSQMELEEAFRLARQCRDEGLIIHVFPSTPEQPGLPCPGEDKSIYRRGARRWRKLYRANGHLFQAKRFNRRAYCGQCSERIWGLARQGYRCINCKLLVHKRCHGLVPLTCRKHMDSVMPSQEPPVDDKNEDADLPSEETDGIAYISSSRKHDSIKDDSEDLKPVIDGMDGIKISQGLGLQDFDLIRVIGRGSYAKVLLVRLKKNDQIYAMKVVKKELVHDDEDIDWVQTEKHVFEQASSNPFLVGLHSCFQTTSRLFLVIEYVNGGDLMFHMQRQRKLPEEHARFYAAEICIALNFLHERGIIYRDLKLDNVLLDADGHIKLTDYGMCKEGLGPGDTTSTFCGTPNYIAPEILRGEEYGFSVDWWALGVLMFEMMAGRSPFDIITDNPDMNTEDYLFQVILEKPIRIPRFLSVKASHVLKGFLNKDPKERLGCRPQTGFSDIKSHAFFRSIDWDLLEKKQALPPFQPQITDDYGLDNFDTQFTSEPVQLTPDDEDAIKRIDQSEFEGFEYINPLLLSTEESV
Put plainly: PKC-ζ kinase assay in vitro. The test is classed as biochemical. Conditions: MBP substrate, higher concentrations required than for PKC-δ, FIG. 5D. On the procedure: Measurement of PKC-β and PKC-ζ activities. Recombinant PKC-βII (Calbiochem) was assayed in vitro in 20 mM HEPES pH 7.2, 15 mM MgCl2, 0.2 mM CaCl2, 1 mM DTT, 25 mM β-glycerophosphate, 50 μg/ml phosphatidylserine and 5 μg/ml diacylglycerol, using 12.5 μM MBP as substrate, using 5 ng of enzyme per 50 μl reaction. 100 μM ATP (containing [γ^32P]-ATP (as above) was used to start the reaction, and incorporation was determined using p81 filter binding (Maines et al., “Human Biliverdin Reductase: A Previously Unknown Activator of Protein Kinase C-βII,” J. Biol. Chem. 282:8110-8122 (2007), which is hereby incorporated by reference in its entirety). Similarly, recombinant PKC-ζ(Millipore) was assayed in 20 mM MOPS pH 7.2, 15 mM MgCl2, 0.2 mM EDTA, with 12.5 μM MBP as substrate, again using 5 ng of enzyme per 50 μl reaction (Lerner-Marmarosh et al., “Regulation of TNF-alpha-Activated PKC-zeta Signaling By the Human Biliverdin Reductase: Identification of Activating and Inhibitory Domains of the Reductase,” FASEB J. 21:3949-3962 (2007), which is hereby incorporated by reference in its entirety). Otherwise, reaction conditions were as for PKC-βII.

Ends that are not written are not given here. * marks the point of attachment. Myristoyl = CCCCCCCCCCCCCC(=O)*

Turning to KRNRYLSF (Myristoyl-KRNRYLSF), in the test on recombinant human PKC-δ (50 μM substrate/10 μM inhibitor, FIG. 5A), the “inhibition of phosphorylation of the commercial substrate” value is recorded as “More than 90%”. For the same sequence, the “sensitivity of PKC-δ activity to the inhibitory peptide” value in the test with recombinant human PKC-δ (MBP substrate, increasing peptide concentrations, FIG. 5D) is recorded as “most sensitive”. The “effect of inhibitory peptide on PKC-ζ activity” value with PKC-ζ is “responsive”.

For the origin of these results see patent US9598677B2, “Use of human biliverdin reductase and fragments thereof for the treatment of protein kinase C-delta and ERK related conditions” (University of Rochester, priority 2009, dated 2017).
